Laboratory results published in patent US7276531B2, “G-lactam derivatives as prostaglandin agonists” (Applied Research Systems ARS Holding N.V., priority 2003, dated 2007).

Legend:
[1] = system: LPS-induced TNFα release; test: In vivo inhibition of LPS-induced TNFα release in mice; conditions: LPS 0.3 mg/kg i.p.
Description: The anti-inflammatory activity of compounds of the invention may be assessed after a LPS challenge using the following protocol:
Eight weeks old C3H/H mice (IFFA-CREDO, L'arbresle, France) receive an oral treatment with compounds of the invention 6 different doses (0.001, 0.01, 0.1, 1 or 3 and 10 mg/kg in 0.5% CMC/0.25% tween-20). Six mice are used by group. Fifteen minutes later, endotoxins (O111:B4 Sigma, 0.3 mg/kg) are intraperitoneally injected. Heparinized whole blood is collected by decapitation. TNFα level is determined in plasma by ELISA (R & D Systems, Abdingdon, UK). Control animals receive 0.5% CMC/0.25% tween-20 (10 ml/kg) as vehicle. Data obtained from experiments are expressed as the mean±SEM and analysed using one-way analysis of variance (ANOVA) followed by Dunnett's t-test.

[2] = system: mature mouse ovulation induction model; test: In vivo ovulation assay (mature mouse ovulation induction model)
Description: Ovulation induction activity of compounds of the invention was tested in a mature mouse ovulation induction model.
Mature 10-week-old CD-mice were used. Reagents were prepared as follows: PMSG (pregnant mare serum gonadotropin) (Calbiochem, cat #367222) and hCG (Serono) are diluted in PBS. PGE2 (Cayman, Ann Arbor Mich.) was dissolved in ethanol and diluted with 0.154 M […] Buffer (pH 8.0) to final concentration of ethanol of less than 3 percent. A compound of the invention (based on solubility) was pre-dissolved in ethanol, DMSO or other reagents. The compound of the invention was then diluted with saline or other diluents such as PBS or NP3S (5% N-methyl-pyrrolidinone/30% PEG400/25% PEG200/20% Propylene Glycol in saline). PMSG stimulates ovarian follicular development. After PMSG stimulation, the mature follicules can be stimulated to rupture and release oocytes by an ovulation trigger, such as hCG or a compound of the invention.
The following test protocol is employed for the test animals (typically 5 animals per test group). • Day 1: Inject 5 IU PMSG in 200 μl PBS (i.p. 15:00 PM) • Day 2: No administration • Day 3: Injection of ovulation trigger hCG (i.p.) or hCG replacement (PGE2 or compound of the invention, s.c., i.v. or oral route), 15:00 PM • Day 4: Eighteen hours after injections of the ovulation triggers, animals were sacrificed by CO2 asphyxiation and abdominal cavities were opened using fine scissors and forceps. Uterus, oviducts and ovaries were collected and placed in pre-labeled dishes containing phosphate buffered saline (PBS). The collected tissues were transferred to the laboratory and intact oviduct carefully dissected out from uterus and ovary under the dissection microscope. The dissected oviducts were placed on the glass microscopic slide and covered with another slide. Two slides were taped on two edges. The numbers of ovulated ova in the oviducts were counted using upright microscope with 4× objective and recorded. […]

[3] = system: methacholine-induced bronchoconstriction; test: In vivo inhibition of guinea pig broncho-constriction (methacholine-induced); conditions: Cavia porcellus, IT (intra-tracheal) route, read-out: calculated effective dose (ED50), bronchoconstriction
From the text: The activity of compounds of the invention in dilation of bronchiolar muscles, may be tested in different models. Guinea pig pulmonary-cholinergic in vivo model is generally used to test the materials for the treatments of asthma in human (Fleisch et al., 1985) Compounds of the invention can be tested in this methacholine-induced bronchomuscle constriction model as described below.
Groups of 3 Duncan Hartley derived male or female guinea pigs weighing 250±50 g are anesthetized with pentobarbital sodium (50 mg/kg i.p., plus an additional 15 mg/kg i.p. if required) and succinylcholine chloride (2 mg/animal i.p.) is subsequently administered to prevent spontaneous respiration. Body temperature is maintained at 37° to 38° C.
The trachea is cannulated and the guinea pig is ventilated with a Harvard rodent respirator in a closed system. Tracheal pressure is recorded through a side-arm of the cannula connected to a P23ID Statham transducer. […] Mean arterial pressure (BP) is monitored from a cannulated carotid artery, and heart rate (HR) is obtained from chest electrodes arranged for lead II. […]
Compounds of the invention are also tested via intra-tracheal (IT) route of administration. […] Tracheal pressure (ITP), blood pressure and heart rate are measured immediately as indicated in the material and methods sections. […]

[4] = system: aspirin-induced gastric ulceration; test: In vivo inhibition of aspirin-induced gastric ulceration; conditions: rats
From the text: The activity of compounds of the invention as protective agents against gastric ulceration can be assayed as follows and as described in Guth et al., 1979. […]
Four hours later, animals are sacrificed and gastric ulceration is scored for degree of hemorrhage and severity of ulcerative lesions as follows: 0=no hyperemia or bleeding, 1=hyperaemia, 2=slight spot bleeding, 3=hyperemia plus slight spot bleeding, 4=hyperemia plus spot bleeding within entire stomach. Reduction of concurrent control score values by 50 percent or more (≧50%) is considered significant.

SMILES: CCCC/C(C)=C/C=C\[C@H]1CCC(=O)N1CCc1ccc(C(=O)O)cc1 [Example 3, 4-(2-{(2R)-2-[(1Z,3E)-4-methylocta-1,3-dienyl]-5-oxopyrrolidin-1-yl}ethyl)benzoic acid]
- % of Inhibition of TNF Release Mean ± SEM ([1]; oral dose 0.001 mg/kg): 41 ± 5%
- % of Inhibition of TNF Release Mean ± SEM ([1]; oral dose 0.01 mg/kg): 43 ± 7%
- % of Inhibition of TNF Release Mean ± SEM ([1]; oral dose 0.1 mg/kg): 63 ± 3%
- % of Inhibition of TNF Release Mean ± SEM ([1]; oral dose 1 mg/kg): 68 ± 3%
- % of Inhibition of TNF Release Mean ± SEM ([1]; oral dose 10 mg/kg): 83 ± 3%
- ED50 ([2]; Mus musculus, po, read-out: calculated ED50 (dose of drug which produces 50% of its effect), ovulation, p.o. administration route, mice): 1 mg/kg
- number of ova released (average) ([2]; oral administration, 20 mg/kg, mature mice): 20
- ED50 [3]: 0.2 mg/kg
- percentage of protection (gastric ulceration) ([4]; 10 mg/kg administered orally): 65%
- Ulceration scores ([4]; aspirin 150 mg/kg oral gavage): decreased in a dose-dependent manner
